Source: PMC7615656 (European journal of pharmacology, 2010)

What was measured:
[1] = target: recombinant rat α1β3γ2F77I receptors (Rattus norvegicus, UniProt P18508+P62813, F115I); assay: Two-electrode voltage clamp of GABA-induced chloride currents in Xenopus oocytes; format: cell-based; settings: α1β3γ2F77I, ns = not significant
[2] = target: recombinant rat α2β3γ2F77I receptors (Rattus norvegicus, UniProt P18508+P23576, F115I); assay: as above; format: cell-based; settings: α2β3γ2F77I, ns = not significant
[3] = target: recombinant rat α2β3γ2 receptors (Rattus norvegicus, UniProt P18508+P23576); assay: as above; format: cell-based; settings: α2β3γ2, ns = not significant
[4] = target: recombinant rat α3β3γ2 receptors (Rattus norvegicus, UniProt P18508+P20236); assay: as above; format: cell-based; settings: α3β3γ2, ns = not significant
[5] = target: recombinant rat α6β3γ2 receptors (Rattus norvegicus, UniProt P18508+P30191); assay: as above; format: cell-based; settings: α6β3γ2, ns = not significant
[6] = test system: GABAA receptors containing the γ2F77I mutation; assay: Modulation of GABA EC3 in receptors containing the γ2F77I mutation; format: cell-based, rat; settings: up to 100 nM
[7] = target: recombinant rat α3β3γ2F77I receptors (Rattus norvegicus, UniProt P18508+P20236, F115I); assay: Two-electrode voltage clamp of GABA-induced chloride currents in Xenopus oocytes; format: cell-based; settings: α3β3γ2F77I, ns = not significant
[8] = target: recombinant rat α4β3γ2 receptors (Rattus norvegicus, UniProt P18508+P28471); assay: as above; format: cell-based; settings: for efficacy (% GABA EC3): α4β3γ2, ns = not significant
[9] = target: recombinant rat α6β3γ2F77I receptors (Rattus norvegicus, UniProt P18508+P30191, F115I); assay: as above; format: cell-based; settings: ns = not significant
[10] = target: recombinant rat α5β3γ2F77I receptors (Rattus norvegicus, UniProt P18508+P19969, F115I); assay: as above; format: cell-based; settings: α5β3γ2F77I, ns = not significant
[11] = target: recombinant rat α4β3γ2F77I receptors (Rattus norvegicus, UniProt P18508+P28471, F115I); assay: as above; format: cell-based; settings: ns = not significant
[12] = target: recombinant rat α1β3γ2 receptors (Rattus norvegicus, UniProt P18508+P62813); assay: as above; format: cell-based; settings: α1β3γ2; for efficacy (% GABA EC3): ns = not significant
[13] = target: recombinant rat α5β3γ2 receptors (Rattus norvegicus, UniProt P18508+P19969); assay: as above; format: cell-based; settings: α5β3γ2; for efficacy (% GABA EC3): ns = not significant

recombinant rat α6β3γ2 receptors, sequence (P30191 20-453): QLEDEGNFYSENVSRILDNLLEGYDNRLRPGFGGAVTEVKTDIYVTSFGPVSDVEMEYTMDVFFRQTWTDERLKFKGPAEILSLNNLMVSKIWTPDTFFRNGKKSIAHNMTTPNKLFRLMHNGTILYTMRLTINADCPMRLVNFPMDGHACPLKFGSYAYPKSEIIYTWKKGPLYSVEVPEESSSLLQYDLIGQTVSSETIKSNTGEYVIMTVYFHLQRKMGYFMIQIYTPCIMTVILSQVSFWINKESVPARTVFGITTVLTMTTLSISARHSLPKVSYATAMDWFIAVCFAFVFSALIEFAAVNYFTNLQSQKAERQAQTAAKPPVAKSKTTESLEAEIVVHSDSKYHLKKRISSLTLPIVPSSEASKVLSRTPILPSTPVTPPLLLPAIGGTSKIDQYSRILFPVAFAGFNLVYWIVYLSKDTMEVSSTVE
recombinant rat α6β3γ2 receptors, sequence (P63079 26-473 partner): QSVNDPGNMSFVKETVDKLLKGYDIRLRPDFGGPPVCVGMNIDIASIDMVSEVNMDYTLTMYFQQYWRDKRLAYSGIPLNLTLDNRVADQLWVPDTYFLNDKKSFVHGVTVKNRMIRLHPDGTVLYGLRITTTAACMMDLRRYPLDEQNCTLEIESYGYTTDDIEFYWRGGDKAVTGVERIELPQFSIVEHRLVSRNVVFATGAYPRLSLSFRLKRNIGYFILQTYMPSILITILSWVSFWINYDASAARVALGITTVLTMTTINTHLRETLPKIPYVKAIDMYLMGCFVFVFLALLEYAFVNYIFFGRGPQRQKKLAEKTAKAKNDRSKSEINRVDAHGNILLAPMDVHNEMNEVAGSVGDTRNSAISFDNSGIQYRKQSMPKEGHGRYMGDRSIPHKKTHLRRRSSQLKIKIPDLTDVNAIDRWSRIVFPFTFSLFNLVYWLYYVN
recombinant rat α6β3γ2 receptors, sequence (P18508 39-466): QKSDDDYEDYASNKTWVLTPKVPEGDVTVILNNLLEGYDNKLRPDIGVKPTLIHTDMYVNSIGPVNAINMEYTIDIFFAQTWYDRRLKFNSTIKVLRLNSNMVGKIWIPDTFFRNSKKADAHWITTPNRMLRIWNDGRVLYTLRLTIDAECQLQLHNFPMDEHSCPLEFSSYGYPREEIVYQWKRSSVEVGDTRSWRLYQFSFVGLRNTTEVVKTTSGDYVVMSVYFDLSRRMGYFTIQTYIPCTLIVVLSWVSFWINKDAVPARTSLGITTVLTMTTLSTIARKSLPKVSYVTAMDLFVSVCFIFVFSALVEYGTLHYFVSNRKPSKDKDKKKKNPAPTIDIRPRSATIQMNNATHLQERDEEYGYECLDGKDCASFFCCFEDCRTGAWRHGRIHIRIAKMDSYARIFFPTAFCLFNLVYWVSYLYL
recombinant rat α6β3γ2F77I receptors, sequence (P30191 20-453): as the sequence (P30191 20-453) above
recombinant rat α6β3γ2F77I receptors, sequence (P63079 26-473 partner): as the sequence (P63079 26-473 partner) above
recombinant rat α6β3γ2F77I receptors, sequence (P18508 39-466 F115I): as the sequence (P18508 39-466) above, with F77I counted along it
recombinant rat α4β3γ2 receptors, sequence (P28471 36-552): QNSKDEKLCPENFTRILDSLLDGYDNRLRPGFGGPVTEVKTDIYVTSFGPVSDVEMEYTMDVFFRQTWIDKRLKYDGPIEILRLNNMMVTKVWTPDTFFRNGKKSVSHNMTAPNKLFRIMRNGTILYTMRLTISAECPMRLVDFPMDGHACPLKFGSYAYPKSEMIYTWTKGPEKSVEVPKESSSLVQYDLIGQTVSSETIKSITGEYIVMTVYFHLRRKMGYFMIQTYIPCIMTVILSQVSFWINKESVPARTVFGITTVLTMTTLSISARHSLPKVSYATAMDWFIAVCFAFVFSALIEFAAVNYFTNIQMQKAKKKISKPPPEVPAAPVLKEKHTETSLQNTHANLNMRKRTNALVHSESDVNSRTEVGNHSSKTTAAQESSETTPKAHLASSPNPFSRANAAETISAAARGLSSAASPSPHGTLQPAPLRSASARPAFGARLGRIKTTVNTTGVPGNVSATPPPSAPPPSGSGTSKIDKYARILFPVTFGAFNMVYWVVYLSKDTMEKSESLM
recombinant rat α4β3γ2 receptors, sequence (P63079 26-473 partner): as the sequence (P63079 26-473 partner) above
recombinant rat α4β3γ2 receptors, sequence (P18508 39-466): as the sequence (P18508 39-466) above

SMILES: CCOC(=O)c1ncn2c1CN(C)C(=O)c1cc(F)ccc1-2 [Ro15–1788, ethyl-8-fluoro-5,6-dihydro-5-methyl-6-oxo-4H-imidazo[1,5-a][1,4]benzodiazepine-3-carboxylate]
- efficacy (% GABA EC3) ([1]; 10 nM): ns
- efficacy (% GABA EC3) ([1]; 100 nM): ns
- efficacy (% GABA EC3) ([1]; 1 μM): ns
- efficacy (% GABA EC3) ([1]; 10 μM): ns
- efficacy (% GABA EC3) ([2]; 10 nM): ns
- efficacy (% GABA EC3) ([2]; 100 nM): ns
- efficacy (% GABA EC3) ([2]; 1 μM): ns
- efficacy (% GABA EC3) ([2]; 10 μM): ns
- efficacy (% GABA EC3) ([3]; 10 nM): 121 ± 2 % GABA EC3
- efficacy (% GABA EC3) ([3]; 100 nM): 128 ± 4 % GABA EC3
- efficacy (% GABA EC3) ([3]; 1 μM): 130 ± 5 % GABA EC3
- efficacy (% GABA EC3) ([3]; 10 μM): 133 ± 7 % GABA EC3
- efficacy (% GABA EC3) ([4]; 10 nM): 128 ± 4 % GABA EC3
- efficacy (% GABA EC3) ([4]; 100 nM): 148 ± 7 % GABA EC3
- efficacy (% GABA EC3) ([4]; 1 μM): 156 ± 8 % GABA EC3
- efficacy (% GABA EC3) ([4]; 10 μM): 157 ± 8 % GABA EC3
- efficacy (% GABA EC3) ([5]; 10 nM): ns
- efficacy (% GABA EC3) ([5]; 100 nM): 128 ± 18 % GABA EC3
- efficacy (% GABA EC3) ([5]; 1 μM): 166 ± 9 % GABA EC3
- efficacy (% GABA EC3) ([5]; 10 μM): 179 ± 6 % GABA EC3
- activity in the mutated receptors [6]: inactive
- efficacy (% GABA EC3) ([7]; 10 nM): ns
- efficacy (% GABA EC3) ([7]; 100 nM): 106 ± 1 % GABA EC3
- efficacy (% GABA EC3) ([7]; 1 μM): 118 ± 2 % GABA EC3
- efficacy (% GABA EC3) ([7]; 10 μM): 139 ± 4 % GABA EC3
- EC50 [8]: > 232 nM
- efficacy (% GABA EC3) ([8]; 10 nM): ns
- efficacy (% GABA EC3) ([8]; 100 nM): 132 ± 8 % GABA EC3
- efficacy (% GABA EC3) ([8]; 1 μM): 162 ± 19 % GABA EC3
- efficacy (% GABA EC3) ([8]; 10 μM): 181 ± 10 % GABA EC3
- efficacy (% GABA EC3) ([9]; 10 nM): ns
- efficacy (% GABA EC3) ([9]; 100 nM): ns
- efficacy (% GABA EC3) ([9]; 1 μM): ns
- efficacy (% GABA EC3) ([9]; 10 μM): ns
- efficacy (% GABA EC3) ([10]; 10 nM): ns
- efficacy (% GABA EC3) ([10]; 100 nM): ns
- efficacy (% GABA EC3) ([10]; 1 μM): ns
- efficacy (% GABA EC3) ([10]; 10 μM): ns
- efficacy (% GABA EC3) ([11]; 10 nM): ns
- efficacy (% GABA EC3) ([11]; 100 nM): ns
- efficacy (% GABA EC3) ([11]; 1 μM): ns
- efficacy (% GABA EC3) ([11]; 10 μM): ns
- efficacy (% GABA EC3) ([12]; 10 nM): ns
- efficacy (% GABA EC3) ([12]; 100 nM): ns
- efficacy (% GABA EC3) ([12]; 1 μM): ns
- efficacy (% GABA EC3) ([12]; 10 μM): ns
- maximal effect on GABA-induced chloride flux (GABA EC3), % of control current ([12]; control current = 100%): no significant effects
- efficacy (% GABA EC3) ([13]; 10 nM): ns
- efficacy (% GABA EC3) ([13]; 100 nM): ns
- efficacy (% GABA EC3) ([13]; 1 μM): ns
- efficacy (% GABA EC3) ([13]; 10 μM): ns
- maximal effect on GABA-induced chloride flux (GABA EC3), % of control current ([13]; control current = 100%): no significant effects
